The text below walks through data of US12539337B2 (priority 2013, dated 2026).

The structures appear in SMILES notation. pIC50: −log10 of the molar value. Entries after “also recorded” stand apart in the source; their conditions may differ.

By pIC50 is commonly meant the negative decadic logarithm of the IC50, by convention in mol/L.

In one experiment the test system is sNMDARs. Description: Whole-cell patch-clamp recordings of spontaneous NMDAR-mediated sEPSCs in cerebrocortical neurons. Format: cell-based, rat. The conditions noted are these: free memantine at 10 μM.
The next experiment concerns NMDARs. Type of experiment: cell-based, rat. The conditions noted are these: memantine alone; read-out: IC50 for blocking NMDARs.

Protocol for sNMDARs: Whole-cell voltage-clamp recordings were performed from neurons after 14 days in vitro. […] All recordings were performed using an Axopatch 200B amplifier (Molecular Devices; Sunnyvale, CA, USA) at room temperature with a holding potential of −70 mV. Currents were digitally sampled at 10-20 kHz and filtered at 2-5 kHz.
Currents were acquired using a Digidata 1322 interface and pClamp 10.1 software. All recordings were made at room temperature at a holding potential of −70 mV. The extracellular solution contained the following: 137 mM NaCl, 1 mM NaHCO3, 0.34 mM Na2HPO4, 5.36 mM KCl, 0.44 mM KH2PO4, 3 mM CaCl2, 5 mM HEPES, 22.2 mM glucose, 0.01 mM glycine, and 0.003 mM strychnine, pH adjusted to 7.2. […]
The spontaneous NMDAR-mediated sEPSCs are usually presented as bursts, with each burst consisting of multiple EPSCs. […] Then, the values for charge transfer of each NMDAR-mediated sEPSC starting from the peak of the first NMDAR-mediated sEPSC and continuing to the baseline were determined, which took about 2 seconds in the majority of analyzed sEPSCs. […] Additionally, the frequency and amplitude of NMDAR-mediated sEPSCs were calculated for each experimental condition during about 100 seconds of recording time. The mean amplitude was calculated by averaging the amplitude of the maximal NMDA-mediated current in each burst. […]

With `CC12CC3CC(C)(C1)CC(N)(C3)C2` [memantine, 3,5-dimethyladamantan-1-amine], the “effect on synaptic activity (sEPSCs)” value in the experiment on sNMDARs is reported as “almost completely inhibit; also recorded: did block it”. Besides, the negative logarithm of the IC50 (pIC50) with NMDARs was around 6.00.
